pKd: −log10 of the molar value.
Legend:
HFD-induced AHR = assay: High-fat-diet-induced airway hyperreactivity; type: in vivo; conditions: A18 30 μg per mouse i.p., last 10 days of HFD
[1] = test system: IL-17A-induced intraperineal neutrophilia; assay: Peritoneal administration of IL-17A (neutrophilia); type: in vivo; conditions: BALB/c mice, A18 30 μg per mouse i.p. co-injected with IL-17A 1 μg, 6 h
Description: Peritoneal administration of IL-17A. Eight-week WT BALB/cJ female mice were subjected to intraperitoneal injection (i.p.) of PBS, 1 μg of IL-17A with or without A18 (30 μg per mouse). The peritoneal cavity was lavaged with 5 ml ice-cold PBS at 6 h post treatment. Peritoneal cells were counted and quantified by differential cell counting.

[2] = biological target: T1, recombinant human IL-17RA ectodomain (Homo sapiens, UniProt Q96F46); assay: Fluorescence binding measurement (fluorescence quenching); conditions: fluorescence-based method, IL-17RA in solution, 1 uM
T1 construct: The recombinant human IL-17RA ectodomain was expressed in baculovirus-infected Sf-9 cells; made in house; host or cells: baculovirus-infected Sf-9 cells
T1 sequence (Q96F46 33-320 limits assumed): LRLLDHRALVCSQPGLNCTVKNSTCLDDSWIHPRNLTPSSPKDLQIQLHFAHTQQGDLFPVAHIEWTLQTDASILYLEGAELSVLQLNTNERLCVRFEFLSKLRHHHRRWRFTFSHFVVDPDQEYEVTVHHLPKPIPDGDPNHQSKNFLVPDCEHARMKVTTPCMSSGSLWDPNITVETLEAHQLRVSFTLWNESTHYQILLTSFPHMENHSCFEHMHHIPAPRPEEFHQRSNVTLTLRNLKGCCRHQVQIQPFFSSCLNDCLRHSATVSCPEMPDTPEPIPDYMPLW
Description: Fluorescence binding measurement. The recombinant human IL-17RA ectodomain was expressed in baculovirus-infected Sf-9 cells and purified as described previously. Liu et al., Nat Commun 4, 1888 (2013). The compound A18 or A0 was obtained from NCI. The purified IL-17RA protein (final concentration at 1 uM) was mixed with various concentrations of compound A0 in the solution consisting of 20 mM Tris, pH 7.5, 150 mM NaCl, and 5% DMSO in a 96-well black flat-bottom microplate (Greiner Bio-One). The reaction mixtures were incubated at room temperature at 120 rpm for 10 min, and fluorescence intensity was measured on a 2300 EnSpire Multimode Plate Reader (PerkinElmer) with excitation (265 nm) and emission (336 nm) wavelengths for A18 or with excitation (240 nm) and emission (337 nm) wavelengths for A0. The fluorescence signal (relative fluorescence intensity) was obtained by subtracting the background fluorescence of buffer and compound A0, and plotted as a function of the concentration of compound A0. The fluorescence quenching was observed as a consequence of the protein-ligand interaction at dose-dependent concentrations of compound A0, and the binding constant of compound A0 to IL-17RA was estimated by one-site total binding fit model (GraphPad Prism).

[3] = test system: human mammary epithelial cells (HMEC); assay: IL-17A-induced CXCL1 (Groα) production, ELISA; type: cell-based; conditions: IL-17 100 ng/ml, 24 h
Source text: Reagents, cell culture and mice. Purified proteins of human IL-17A, human IL-17E (IL-25), human IL-17RA-Fc (extracellular domain 1-322 AA fused with Fc region of human IgG1 at the C-terminus), human IL-17RB-Fc (extracellular domain 1-289 AA fused with Fc region of human IgG1 at the C-terminus), human horseradish peroxidase (HRP)-conjugated IgG Fc secondary antibody were purchased from Sino Biological Inc. Human and mouse IL-17A and mouse IL-23 used for cell culture and animal injection were purchased from R&D Systems. Human mammary epithelial cells were maintained in Medium 171 plus mammary epithelial growth supplement (MEGS) purchased from Invitrogen, which contain bovine pituitary extract (BPE) (0.4% v/v), recombinant human insulin-like growth factor-I (1 μg/ml), hydrocortisone (0.5 μg/ml) and human epidermal growth factor (3 ng/ml). A549 cells were maintained in RPMI supplemented with 10% FCS and 100 U/ml penicillin and 100 μg/ml streptomycin. All mice were obtained from Jackson laboratory.
ELISA. Groα and IL-17A levels were assayed by ELISA kits (R&D systems) according to the manufacturer's instruction.

[4] = test system: IL-17F-induced gene expression; assay: IL-17F-induced gene expression in epithelial cells; type: cell-based, human; conditions: data not shown
[5] = test system: HDM-induced allergic airway disease; assay: House dust mite (HDM)-induced asthma; type: in vivo; conditions: C57BL/6 mice, A18 30 μg per mouse i.p. daily
Description: Measurement of AHR. AHR was measured in mice in response to increasing doses of inhaled methacholine. Mice were anesthetized with i.p. pentobarbital sodium (60 mg/kg). After the intubation and the placement of a 19-gauge cannula through a tracheotomy incision, the cannula was affixed with a silk suture ligation. Mice were connected to a computer-controlled piston ventilator run at a rate of 150 breaths/min, a tidal volume of 0.2 ml, and a positive end-expiratory pressure of 2-3 cm H2O (Flexivent). Mice were then administered a muscle relaxant (pancuronium bromide, […]), and the lungs were expanded twice to total lung capacity at an amplitude pressure of 30 cm H2O. Each mouse was aerosolized with methacholine in saline at doses of 0 mg/ml, 12.5 mg/ml, 25 mg/ml, and 50 mg/ml, delivered over 10 s through an in-line nebulizer. Lung resistance (RL) was obtained through forced oscillation technique by FlexiVent 5.2 (Flexivent; Scireq) software. House dust mite (HDM)-induced asthma. WT C57BL/6 mice were sensitized intratracheally (i.t.) with HDM (Dermatophagoides farina, 100 μg per mouse, Greer Laboratories) on day 0 and subsequently challenged (i.t.) with HDM (100 μg per mouse) from day 7 for 5 days. […] All gene expression results are expressed as arbitrary units relative to expression of the gene encoding beta-actin.

pKd [2]: ~5.30
Structure (SMILES): Oc1cc(O)c2cc(O)c(-c3ccc(O)c(O)c3)[o+]c2c1.[Cl-] [A18, 2-(3,4-Dihydroxyphenyl)-3,5,7-trihydroxy-1-benzopyrylium chloride]
HFD-induced AHR (HFD-induced AHR; C57Bl/6 mice): substantially attenuated
HFD-induced inflammatory gene expression in lung (HFD-induced AHR; C57Bl/6 mice): substantially attenuated
HFD-induced production of IL-17A in the lung (HFD-induced AHR; cultured lung cells): no impact
IL-17A-induced intraperineal neutrophilia [1]: greatly attenuated
IL-17A-mediated CXCL1 production [3]: greatly inhibited
IL-17F-induced gene expression [4]: able to block
HDM-induced AHR [5]: reduced
HDM-induced inflammatory gene expression [5]: reduced

— patent US10385034B2, “Flavonoid IL-17A inhibitors” (THE CLEVELAND CLINIC FOUNDATION, priority 2014, dated 2019)
